The values below come from patent US8318899B2, “Lytic domain fusion constructs and methods of making and using same” (Board of Supervisors of Louisiana State University and …, priority 2008, dated 2012).

The test system of assay [1] is NIH:OVCAR-3 xenograft. As to the kind of experiment: OVCAR-3 ovarian cancer xenograft. It is filed as in vivo. Here is the method: The xenograft model of the OVCAR-3 human ovarian cancer cell line that present functional LHRH receptors was used in this study. OVCAR-3 represents a slow growing xenograft model and secretes the tumor marker (cancer antigen 125, or […]). It's secretion can be used as treatment response and is a measure of drug activity.
In brief, Nu/Nu female mice, inbred strain, age 5 weeks (Harlan-Sprague Dawley) were injected subcutaneously with a NIH:OVCAR-3 cells/Matrigel suspension (4.6×10^6 cells/mouse). Treatment was started on day 33 after tumor cell injection when the tumors were established and continued on days 41 and 47. The doses for the 3 weekly injections were 0.02, 0.2 and 2 mg/kg body weight, given as a single bolus intravenous injection via lateral tail vein administered once a week for three weeks on days 33, 41 and 47. Necropsies were conducted on day 52. Data are presented as mean SEM. Arrows show dosing.
A group of 9 tumor bearing mice was sacrificed on day 33 and served as baseline group. All mice were necropsied 51-52 days after tumor cell injection. Tumor volumes and bodyweights were recorded twice weekly during the study, as well as overall veterinarian examination of mice was conducted.
(§1) Primary tumors, liver, kidney, pancreas, heart, lung, and spleen were collected, fixed in formalin and prepared for histological evaluation. Tumor weights were measured at necropsy, part of the tumors were frozen at −80° C. for LH/CG and LHRH receptor assay determination.
As a biomarker for drug activity, CA125 was determined in serum, collected from each individual mouse at necropsy using a Enzyme Linked Immunoassay for quantitative determination of ovarian cancer antigen CA125 (Assay kit Genway, Biotech, Inc. San Diego, Calif., Catalog #40-052-115009, # BC-1013 according to the manufacturer).
LHRH receptor levels were assessed from formalin fixed tumors. Quantitative immunoperoxidase image analysis was conducted with the Ventana Image Analysis System (VIAS) adjunctive computer assisted image analysis system functionally connected to an interactive microscope (Axio Imager). The quantitative analysis was conducted with the program for quantification of Her2/neu receptor that included morphometric and colorimetric analysis. Receptor status results were reported as percentage of cells showing positive staining of the LHRH receptors under the following criteria: 0 non-immunoreactive, 1+: 1-25% positive, 2+: 26-50% positive, 3+: 51-75% positive cells.

In assay [2] the test system is PC-3 xenograft. Nature of the assay: PC-3 prostate cancer xenograft. The assay is classed as in vivo, Nu/Nu mice. As to the method: PC-3 xenografts untreated cause significant weight loss in mice.
In brief, Nu/Nu male mice, outbred strain, age 6 weeks (Charles River) were injected subcutaneously with a PC-3 cells/Matrigel suspension (1×10^6 cells/mouse). Treatment was started on day 15 after tumor cell injection when the tumors were established and continued on days 22 and 29. […]
A group of 12 tumor bearing mice was sacrificed on day 15 and served as baseline group. All mice were necropsied 35 and 36 days after tumor cell injection. Tumor volumes and bodyweights were recorded twice weekly during the study, as well as overall veterinarian examination of mice was conducted.
as §1

For assay [3], the system named is NIH:3T3. It is filed as cell-based, mouse. The settings on record: non cancerous cell line 3T3. Here is the method: (§2) The breast cancer cell lines studied were MDA-MB435S (estrogen receptor alpha negative), MCF-7 and T47D (estrogen receptor alpha positive), ovarian cancer cell lines (OVCAR-3 and SKOV-3), prostate cancer (LNCaP), the non-malignant breast epithelial cell line MCF-10A and the mouse fibroblast cell line NIH:3T3.
Cells were seeded into 96 well plates at a density of 10,000 cells/well. […] Controls contained USP saline or 0.1% TritonX-100™ as reference for 0 and 100% cell death, respectively. Incubations were terminated by removing the culture media after 2 minutes, 5 minutes, 15 minutes, 30 minutes, 1 hour, 2 hours, 6 hours, 24 and 48 hours. Cell viability was assessed through formazan conversion assay (MTT assay, (CellTiter 96 Aqueous One, Promega # G3582). Formazan conversion was determined using a BioRad Benchmark Plus microplate spectrophotometer dual wavelengths at 490/630 nm at room temperature).
(§3) Data were calculated as fraction of absorption in TritonX-100™ containing wells representing 100% cell death versus 0% cell death in saline containing wells. Cytotoxicity was determined as IC50 using GraphPad Prism version 5.01 for Windows, GraphPad Software, San Diego Calif. […] 4 wells of each individual set of two 96 well plates were compared and analyzed. Statistical analysis for significance was determined by a two-tailed Student's T-test.

The test system of assay [4] is MDA-MB-435S.luc cells. Nature of the assay: Cell toxicity (MTT) screening in MDA-MB-435S.luc breast cancer cells. The assay is classed as cell-based, human. As to conditions: relative to Phor21-βCG-ala (IC50 2.31 μM). From the text: The human breast cancer cell line MDA-MB-435S.luc, which over expresses chorionic gonadotrophin (CG) and luteinizing hormone-releasing hormone (LHRH) receptors, was used to screen at passage numbers 248-252. The MDA-MB-435S.luc cell line was constructed from the MDA-MB-435S cell line obtained from the American Type Cell Culture Collection by stable transfection with the plasmid PRC/CMV-luc containing the Photinus pyralis luciferase gene and an […] by lipofection. The stably transfected cell line was selected using G418 and the clones with the highest expression for the luciferase gene were tested for their LH and LHRH receptor expression.
MDA-MB435S.luc cells were grown in Leibovitz's L 15 medium, 10% fetal bovine serum, 0.01 mg/ml bovine insulin, 100 IU/ml penicillin, 100 microg/ml streptomycin. The cells were cultured in tight closed flasks. The incubations were conducted using 96 well plates at 10,000 cells per well. Cells were typically seeded into 96 well plates and media was replaced after 48 hours of incubation. Each assay was conducted at increasing concentrations of 0, 0.001, 0.01, 0.05, 0.1, 0.5, 1, 2, 5, 10 and 100 micromolar doses of lytic peptide-binding domain conjugate. […]
Data were processed and analyzed using Graph Pad Prizm 4™ software (Graph Pad Prizm, Inc). Statistical analysis for significance was determined by a two-tailed Student's T-test. […]

Assay [5] concerns OVCAR-3 cells. The assay is classed as cell-based, human. As to conditions: OVCAR-3 p47, series with increasing incubation time (times not given per value).
Source text: Membranes of non-cancerous cell lines are neutral and are resistant to cytolytic peptides, in contrast to cancer cell lines, which have a high phosphatidic acid content in their outer membrane.
as §2
Cells were seeded into 96 well plates at a density of 10,000 cells/well. […] Controls contained USP saline or 0.1% TritonX-100™ as reference for 0 and 100% cell death, respectively. […] Cell viability was assessed through formazan conversion assay (MTT assay, (CellTiter 96 Aqueous One, Promega # G3582). Formazan conversion was determined using a BioRad Benchmark Plus microplate spectrophotometer dual wavelengths at 490/630 nm at room temperature).
as §3

One may read the IC50 as the concentration that gives 50% inhibition. A higher IC50 goes with weaker potency.

In the case of “KFAKFAKKFAKFAKKFAKQHWSYGLRPG [Phor18-LHRH]”, the “dose with significant necrosis in tumor sections” value in assay [1] (H&E) was 0.02 mg/kg. Moreover, the “Median Tumor Weight vs Baseline p < 0.05 (dose)” value was 0.2 mg/kg in assay [1] (OVCAR-3 xenograft, 1 × 3 wk, 20 d) and 0.2 mg/kg in assay [2] (PC-3 xenograft, 1 × 3 wk, 21 d). In addition, the “tumor volume during treatment” value in assay [1] (Phor18-LHRH 0.02-2 mg/kg, CLIP71 2 mg/kg, cisplatinum 10 mg/kg) is recorded as “Tumor volumes decreased during treatment”; in assay [2] (Phor18-LHRH 0.002-2 mg/kg, CLIP71 5 mg/kg), “Tumor volumes decreased during treatment”. Besides, in assay [1] (greatest at 0.2 and 2 mg/kg (p<0.0002 vs saline)), the “serum CA125” value was “CA125 secretion was reduced”. For the same sequence, the “tumor weights at necropsy” value in assay [1] (mouse, in vivo) is “Tumor free mice were found”. Also, the figures for the IC50 in assay [3] and in assay [5] were over 10 µM and 0.5 µM, respectively. Also, the “Increased in vitro activity fold (IC50 of 33/IC50 peptide)” value in assay [4] turned out to be 2.65 fold.
